According to US20210008097A1, “Compositions Comprising Galactose-Pronged Polysaccharides” (Galectin Therapeutics, Inc., priority 2006, published 2021):

Tests used:
[1] = after 24 hrs; cited from earlier work
[2] = Liver, lung, kidney and plasma distribution of radiolabeled (tritiated) galactomannan after single intravenous injection; assay type: in vivo, male NCr-nu athymic nude mice; conditions: for μCi of 3H-galactomannan per 1 g of kidney / μCi of 3H-galactomannan per 1 g of liver / μCi of 3H-galactomannan per 1 g of lungs / μCi of 3H-galactomannan per kidney, total / μCi of 3H-galactomannan per lungs, total / μCi of 3H-galactomannan per mL of plasma / μCi of 3H-galactomannan per liver, total: 6 or 60 mg/kg i.v., pooled; for μCi of 3H-galactomannan per liver, total: average of four animals
Source text: Twelve male NCr-nu athymic nude mice (Charles Rivers Laboratories, Raleigh, N.C.) were acclimated in the laboratory one week prior to experimentation. The animals were housed in microisolator cages, four per cage, and using a 12-hour light/dark cycle. All animals received sterilized tap water and sterile rodent food ad libitum. The animals were observed daily and clinical signs were noted. The mice were healthy and had not been previously used in other experimental procedures.
Tritiation of the galactomannan was performed as follows. 12.8 mg of the galactomannan was dissolved in 2.0 mL of water and exposed to 25 Curies of tritium gas in the presence of Pd/BaSO4 catalyst (120 mg, totally insoluble in water). After one hour the gas supply was removed, the catalyst was filtered away, and the aqueous solution of the galactomannan was evaporated to dryness repeatedly (four-fold, adding water), until no labile tritium was found. Total yield of the labeled galactomannan was 3.8 mCi, specific radioactivity was […].
All twelve mice were given a single intravenous injection of cold or tritiated galactomannan (either 6 or 60 mg/kg) on the same day. Non-labeled galactomannan was formulated in saline, and tritiated galactomannan was added to the solution so that each animal received 10 μCi of radioactivity. All dosing solutions (100 μL each) were counted in duplicate. Six mice were injected with 6 mg/kg solution, and six mice—with 60 mg/kg solution.
Two mice from each group were bled at 1, 6, and 24 hrs after injection, and plasma was prepared. Animals were then sacrificed; livers, kidneys and lungs were collected, weighed and flash-frozen for further analysis.
After weighing, livers were dissolved in 10 mL of Soluene 350 and incubated first for 4 hrs at 50° C., and at room temperature, until tissues were solubilized. One mL of the resulting solution was counted in a scintillation counter as a single sample. Based on tissue weight and the sample volume, the number of μCi of tritiated galactomannan per gram of tissue was calculated.
Kidneys were treated in the same manner, but dissolved in two mL of Soluene. After the tissue was solubilized at room temperature, 15 mL of Safety Solve scintillation fluid was added and samples were incubated overnight. Five mL of the resulting solution were diluted in 15 mL of Safety Solve and counted in a scintillation counter as a single sample. Lungs were treated in the same manner but dissolved in one mL of Soluene. Plasma samples (50 μL each) were placed direct into Safety Solve and counted as a single sample.
The statistical evaluation was based on experiments to trace and quantify the labeled galactomannan in organs/tissues (liver, kidneys, lung, and plasma). Six mice were treated with galactomannan at 60 mg/kg with each of 2 mice sacrificed at 1, 6, and 24 hours; six mice were treated with galactomannan at 6 mg/kg with each of 2 mice sacrificed at 1, 6, and 24 hours, as described above. The percentages of ^3H-galactomannan recovered per organ (μCi/gram) was used for analyses; plasma outcome (μCi/ml) was counted from the entire sample.
The assessment of radiolabel uptake was challenging with only two mice per treatment-sacrifice time combination and occasional outliers. To address the number of mice per group, pooling tests were performed for the two galactomannan treatment groups; this would potentially increase sample size per group to four. To address possible outliers, all outcomes for each individual mouse was visually compared to the other mice in the series-treatment-time combination; the four possible mice outcomes were considered in this evaluation since any sigma-based rule would have excluded none or both observations if applied separately to the two different series.
SAS (Version 6.12, Cary, N.C.) was used for all analyses. PROC ANOVA was used for pooling tests, while […] was used to estimate means and standard deviations.
Overall, the data in Table 1 are average for four animals.

O=c1[nH]cc(F)c(=O)[nH]1 [5-fluorouracil]
clearance from the kidneys, eliminated to [1]: 3.8% | clearance from the liver, eliminated to [1]: 1.6% | clearance from the lungs, eliminated to [1]: 3.6%

galactomannan
increase of the amount of bound galactomannan ([2]; 60 mg/kg versus 6 mg/kg (10-times higher dose)): 10 fold | μCi of 3H-galactomannan per 1 g of kidney ([2]; 1 hr after injection): 0.302 μCi/gram | μCi of 3H-galactomannan per 1 g of liver ([2]; 1 hr after injection): 0.219 μCi/gram | μCi of 3H-galactomannan per 1 g of lungs ([2]; 1 hr after injection): 0.117 μCi/gram | μCi of 3H-galactomannan per kidney, total ([2]; 1 hr after injection): 0.120 μCi | μCi of 3H-galactomannan per lungs, total ([2]; 1 hr after injection): 0.019 μCi | μCi of 3H-galactomannan per mL of plasma ([2]; 1 hr after injection): 0.201 μCi/ml | μCi of 3H-galactomannan per liver, total ([2]; 1 hr after injection): 0.262 μCi | μCi of 3H-galactomannan per 1 g of kidney ([2]; 6 hr after injection): 0.131 μCi/gram | μCi of 3H-galactomannan per 1 g of liver ([2]; 6 hr after injection): 0.146 μCi/gram | μCi of 3H-galactomannan per 1 g of lungs ([2]; 6 hr after injection): 0.063 μCi/gram | μCi of 3H-galactomannan per kidney, total ([2]; 6 hr after injection): 0.060 μCi | μCi of 3H-galactomannan per lungs, total ([2]; 6 hr after injection): 0.012 μCi | μCi of 3H-galactomannan per mL of plasma ([2]; 6 hr after injection): 0.095 μCi/ml | μCi of 3H-galactomannan per liver, total ([2]; 6 hr after injection): 0.196 μCi | μCi of 3H-galactomannan per 1 g of kidney ([2]; 24 hrs after injection): 0.087 μCi/gram | μCi of 3H-galactomannan per 1 g of liver ([2]; 24 hrs after injection): 0.129 μCi/gram | μCi of 3H-galactomannan per 1 g of lungs ([2]; 24 hrs after injection): 0.060 μCi/gram | μCi of 3H-galactomannan per kidney, total ([2]; 24 hrs after injection): 0.040 μCi | μCi of 3H-galactomannan per lungs, total ([2]; 24 hrs after injection): 0.011 μCi | μCi of 3H-galactomannan per mL of plasma ([2]; 24 hrs after injection): 0.106 μCi/ml | μCi of 3H-galactomannan per liver, total ([2]; 24 hrs after injection): 0.169 μCi | saturation of the binding to liver, kidney, lung, and plasma ([2]; between the 6 mg/kg and 60 mg/kg doses): did not reach saturation of the binding | share of the radioactivity detected at one hour after injection still present ([2]; liver, at 24 hours, average): more than 50% | share of the one-hour radioactivity detected ([2]; plasma, kidneys, and lungs, at 6 hours, average): approximately 50%
